Legend:
Human δ-opioid (DOP) = target: T1, Human δ-opioid (DOP) (Homo sapiens, UniProt P41143); assay: Radioligand binding, human δ-opioid (DOP) membranes, FlashPlate, [3H]-Bremazocine; settings: compound at 10 μM, [3H]-Bremazocine; for A1: inhibition of radioligand binding: FlashPlate
T1 construct: purchased Perkin Elmer Biosignal
Outline: (§1)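 Cloned human receptor membranes were coated onto FlashPlate wells and incubated with radioligand and compound (added from a 0.5 mM DMSO daughter plate) for 1 hour at room temperature in the dark. Scintillation counting gave percent inhibition, with DMSO defining total and reference ligand defining non-specific binding.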

[1] = target: T2, Human melanin-concentrating hormone (MCH1) (Homo sapiens, UniProt Q99705); assay: Radioligand binding, human melanin-concentrating hormone MCH1 membranes, FlashPlate, [125I]-S36057; settings: compound at 10 μM; for A6: inhibition of radioligand binding: [125I]-S36057, FlashPlate
T2 construct: purchased Perkin Elmer Biosignal
Outline: as §1

Human opioid (ORL1) = target: T3, Human opioid (ORL1) (Homo sapiens, UniProt P41146); assay: Radioligand binding, human opioid ORL1 membranes, FlashPlate, [125I]-Nociceptin; settings: compound at 10 μM, [125I]-Nociceptin; for A10: inhibition of radioligand binding: FlashPlate
T3 construct: purchased Perkin Elmer Biosignal
Outline: as §1

Mouse urotensin (mUR2) = target: T4, Mouse urotensin (mUR2) (Mus musculus, UniProt Q8VIH9); assay: Radioligand binding, mouse urotensin mUR2 membranes, FlashPlate, [125I]-Urotensin II; settings: compound at 10 μM, [125I]-Urotensin II; for A11: inhibition of radioligand binding: FlashPlate
T4 construct: purchased Perkin Elmer Biosignal
T4 sequence (Q8VIH9 1-385): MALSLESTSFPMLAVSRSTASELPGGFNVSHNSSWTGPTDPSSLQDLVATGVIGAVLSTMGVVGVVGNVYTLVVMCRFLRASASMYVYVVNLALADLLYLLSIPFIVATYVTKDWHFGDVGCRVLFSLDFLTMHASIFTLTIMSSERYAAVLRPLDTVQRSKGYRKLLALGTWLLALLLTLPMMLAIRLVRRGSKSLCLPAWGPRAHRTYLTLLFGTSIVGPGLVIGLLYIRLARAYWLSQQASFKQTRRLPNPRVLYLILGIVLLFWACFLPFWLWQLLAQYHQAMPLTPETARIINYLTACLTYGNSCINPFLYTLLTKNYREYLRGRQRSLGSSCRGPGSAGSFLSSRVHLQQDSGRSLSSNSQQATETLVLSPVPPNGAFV
Outline: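 Cloned mouse urotensin (mUR2) receptor membranes from Perkin Elmer Biosignal were immobilized in FlashPlate microplates using a proprietary coating. Each well got 19.5 μl buffer, then 0.5 μl of DMSO, reference ligand, or compound. Adding 5 μl of [125I]-Urotensin II, diluted to 5× final concentration in binding buffer, started binding. Plates were sealed with TopSeal-A and incubated 1 hour at room temperature in the dark. Wells were counted for 30 seconds each on a TopCount after a 60-second delay, and percentage inhibition was calculated.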

Human κ-Opioid (KOP) = target: T5, Human κ-Opioid (KOP) (Homo sapiens, UniProt P41145); assay: Radioligand binding, human κ-opioid (KOP) membranes, filtration, [3H]-Diprenorphine; settings: compound at 10 μM, [3H]-Diprenorphine; for A2: inhibition of radioligand binding: filtration
T5 construct: purchased Perkin Elmer Biosignal
Outline: (§2)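 Membranes from cloned human receptors were incubated with compound and radioligand for 1 hour at room temperature. Bound ligand was collected on 0.3% PEI-soaked filters, washed with cold 50 mM Tris-HCl pH 7.4, and counted by scintillation. Percent inhibition was computed against DMSO totals and reference-ligand nonspecific wells.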

Human neurokinin (NK1) = target: T6, Human neurokinin (NK1) (Homo sapiens, UniProt P25103); assay: Radioligand binding, human neurokinin NK1 membranes, filtration, [125I]-Substance P; settings: compound at 10 μM, [125I]-Substance P; for A8: inhibition of radioligand binding: filtration
T6 construct: purchased Perkin Elmer Biosignal
Outline: as §2

Human μ-opioid (MOP) = target: T7, Human μ-opioid (MOP) (Homo sapiens, UniProt P35372); assay: Radioligand binding, human μ-opioid (MOP) membranes, FlashPlate, [3H]-Naloxone; settings: compound at 10 μM, [3H]-Naloxone; for A7: inhibition of radioligand binding: FlashPlate
T7 construct: purchased Perkin Elmer Biosignal
Outline: as §1

Human Melanocortin (MC3) = target: T8, Human Melanocortin (MC3) (Homo sapiens, UniProt P41968); assay: Radioligand binding, human melanocortin MC3 membranes, FlashPlate, [125I]-NDP-αMSH; settings: compound at 10 μM, [125I]-NDP-αMSH; for A3: inhibition of radioligand binding: FlashPlate
T8 construct: purchased Perkin Elmer Biosignal
Outline: as §1

Human Melanocortin (MC4) = target: T9, Human Melanocortin (MC4) (Homo sapiens, UniProt P32245); assay: Radioligand binding, human melanocortin MC4 membranes, FlashPlate, [125I]-NDP-αMSH; settings: compound at 10 μM, [125I]-NDP-αMSH; for A4: inhibition of radioligand binding: FlashPlate
T9 construct: purchased Perkin Elmer Biosignal
Outline: as §1

Human melanocortin (MC5) = target: T10, Human melanocortin (MC5) (Homo sapiens, UniProt P33032); assay: Radioligand binding, human melanocortin MC5 membranes, FlashPlate, [125I]-NDP-αMSH; settings: compound at 10 μM, [125I]-NDP-αMSH; for A5: inhibition of radioligand binding: FlashPlate
T10 construct: purchased Perkin Elmer Biosignal
Outline: as §1

[2] = target: T11, Human neuropeptide Y (NPY-Y1) (Homo sapiens, UniProt P25929); assay: Radioligand binding, human neuropeptide Y NPY-Y1 membranes, FlashPlate, [125I]-PYY; settings: compound at 10 μM, [125I]-PYY; for A9: inhibition of radioligand binding: FlashPlate
T11 construct: purchased Perkin Elmer Biosignal
T11 sequence (P25929 1-384): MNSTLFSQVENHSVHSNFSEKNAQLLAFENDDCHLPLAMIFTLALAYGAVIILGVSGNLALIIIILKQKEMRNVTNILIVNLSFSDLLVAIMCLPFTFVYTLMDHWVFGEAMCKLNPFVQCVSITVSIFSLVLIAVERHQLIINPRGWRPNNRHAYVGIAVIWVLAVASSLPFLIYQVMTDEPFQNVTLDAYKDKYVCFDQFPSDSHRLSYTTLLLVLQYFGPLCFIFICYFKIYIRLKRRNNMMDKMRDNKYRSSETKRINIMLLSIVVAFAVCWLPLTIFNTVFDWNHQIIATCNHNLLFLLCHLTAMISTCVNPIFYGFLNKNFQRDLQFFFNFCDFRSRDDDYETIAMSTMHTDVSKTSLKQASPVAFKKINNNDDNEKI
Outline: as §1

T10 sequence (P33032 whole entry): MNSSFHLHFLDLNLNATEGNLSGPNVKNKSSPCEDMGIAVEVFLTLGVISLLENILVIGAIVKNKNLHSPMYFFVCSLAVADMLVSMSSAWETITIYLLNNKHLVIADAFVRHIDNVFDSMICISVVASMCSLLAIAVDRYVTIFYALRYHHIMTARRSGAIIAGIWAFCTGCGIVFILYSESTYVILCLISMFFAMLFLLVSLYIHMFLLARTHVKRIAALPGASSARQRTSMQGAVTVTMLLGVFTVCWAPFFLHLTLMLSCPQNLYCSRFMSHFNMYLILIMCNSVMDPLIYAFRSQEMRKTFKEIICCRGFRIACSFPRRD
T8 sequence (P41968 whole entry): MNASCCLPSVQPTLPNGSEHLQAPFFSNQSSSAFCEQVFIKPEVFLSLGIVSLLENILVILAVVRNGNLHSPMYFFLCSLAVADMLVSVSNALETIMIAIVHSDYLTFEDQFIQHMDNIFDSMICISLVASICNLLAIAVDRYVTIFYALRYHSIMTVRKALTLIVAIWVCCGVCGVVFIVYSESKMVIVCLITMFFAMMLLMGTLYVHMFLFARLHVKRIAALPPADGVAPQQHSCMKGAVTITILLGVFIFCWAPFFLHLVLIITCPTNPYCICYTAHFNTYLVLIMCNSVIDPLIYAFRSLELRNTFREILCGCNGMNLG
T3 sequence (P41146 whole entry): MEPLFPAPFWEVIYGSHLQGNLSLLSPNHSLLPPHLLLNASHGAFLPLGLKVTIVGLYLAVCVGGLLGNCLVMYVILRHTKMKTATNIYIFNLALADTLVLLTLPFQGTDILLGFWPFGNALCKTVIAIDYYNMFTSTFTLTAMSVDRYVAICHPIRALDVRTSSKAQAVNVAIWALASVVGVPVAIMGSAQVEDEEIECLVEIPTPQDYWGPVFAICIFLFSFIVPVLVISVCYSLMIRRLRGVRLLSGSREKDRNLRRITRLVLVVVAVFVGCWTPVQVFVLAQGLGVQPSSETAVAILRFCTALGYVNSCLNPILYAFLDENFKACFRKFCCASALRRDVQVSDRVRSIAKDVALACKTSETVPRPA
T7 sequence (P35372 whole entry): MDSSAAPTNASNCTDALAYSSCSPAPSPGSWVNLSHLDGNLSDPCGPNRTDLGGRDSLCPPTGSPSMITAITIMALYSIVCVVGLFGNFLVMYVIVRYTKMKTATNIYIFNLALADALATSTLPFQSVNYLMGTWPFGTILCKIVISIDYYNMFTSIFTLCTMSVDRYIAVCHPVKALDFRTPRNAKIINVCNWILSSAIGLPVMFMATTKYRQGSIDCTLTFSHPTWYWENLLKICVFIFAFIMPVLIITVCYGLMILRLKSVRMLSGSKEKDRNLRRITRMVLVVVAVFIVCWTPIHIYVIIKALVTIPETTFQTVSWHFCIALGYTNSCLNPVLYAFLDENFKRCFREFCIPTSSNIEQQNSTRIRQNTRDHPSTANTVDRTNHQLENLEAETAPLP
T1 sequence (P41143 whole entry): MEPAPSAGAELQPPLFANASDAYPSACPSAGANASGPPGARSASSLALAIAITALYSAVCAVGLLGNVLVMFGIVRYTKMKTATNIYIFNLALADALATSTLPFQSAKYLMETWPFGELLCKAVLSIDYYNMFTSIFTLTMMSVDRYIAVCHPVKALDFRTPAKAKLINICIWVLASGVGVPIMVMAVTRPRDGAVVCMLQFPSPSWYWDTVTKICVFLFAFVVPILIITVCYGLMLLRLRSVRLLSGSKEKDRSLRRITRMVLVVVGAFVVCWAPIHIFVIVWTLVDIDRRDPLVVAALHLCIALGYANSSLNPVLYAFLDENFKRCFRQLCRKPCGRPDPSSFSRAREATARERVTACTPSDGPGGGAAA
T6 sequence (P25103 whole entry): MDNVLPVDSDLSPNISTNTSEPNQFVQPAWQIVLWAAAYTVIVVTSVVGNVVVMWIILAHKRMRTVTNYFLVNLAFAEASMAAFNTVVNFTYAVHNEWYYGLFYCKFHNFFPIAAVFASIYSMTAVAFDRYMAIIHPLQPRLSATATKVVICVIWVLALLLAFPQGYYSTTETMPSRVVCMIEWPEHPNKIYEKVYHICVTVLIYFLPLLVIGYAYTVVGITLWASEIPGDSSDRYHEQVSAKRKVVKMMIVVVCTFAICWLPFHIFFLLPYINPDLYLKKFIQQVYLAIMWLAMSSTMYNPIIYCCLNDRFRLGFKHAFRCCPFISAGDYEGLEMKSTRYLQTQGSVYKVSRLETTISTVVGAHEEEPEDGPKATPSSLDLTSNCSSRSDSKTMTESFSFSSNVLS
T5 sequence (P41145 whole entry): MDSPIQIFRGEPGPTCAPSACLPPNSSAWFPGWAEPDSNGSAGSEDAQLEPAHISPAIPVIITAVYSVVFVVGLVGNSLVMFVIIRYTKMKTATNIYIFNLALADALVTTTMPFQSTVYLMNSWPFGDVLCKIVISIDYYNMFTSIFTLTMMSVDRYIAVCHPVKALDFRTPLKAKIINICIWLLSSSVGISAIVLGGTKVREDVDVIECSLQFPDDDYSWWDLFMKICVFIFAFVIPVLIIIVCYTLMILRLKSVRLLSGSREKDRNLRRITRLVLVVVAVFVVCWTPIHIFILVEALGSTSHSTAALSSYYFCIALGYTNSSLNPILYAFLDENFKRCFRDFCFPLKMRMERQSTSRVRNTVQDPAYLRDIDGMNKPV
T2 sequence (Q99705 whole entry): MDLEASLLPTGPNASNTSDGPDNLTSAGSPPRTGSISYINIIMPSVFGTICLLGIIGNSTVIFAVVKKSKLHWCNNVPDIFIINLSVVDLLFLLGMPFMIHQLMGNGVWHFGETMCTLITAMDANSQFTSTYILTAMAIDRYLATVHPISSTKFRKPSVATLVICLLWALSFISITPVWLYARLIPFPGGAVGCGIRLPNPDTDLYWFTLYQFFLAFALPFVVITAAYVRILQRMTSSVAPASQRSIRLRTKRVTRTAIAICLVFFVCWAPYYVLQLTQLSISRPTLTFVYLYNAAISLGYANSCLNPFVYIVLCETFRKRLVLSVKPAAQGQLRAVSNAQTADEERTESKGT
T9 sequence (P32245 whole entry): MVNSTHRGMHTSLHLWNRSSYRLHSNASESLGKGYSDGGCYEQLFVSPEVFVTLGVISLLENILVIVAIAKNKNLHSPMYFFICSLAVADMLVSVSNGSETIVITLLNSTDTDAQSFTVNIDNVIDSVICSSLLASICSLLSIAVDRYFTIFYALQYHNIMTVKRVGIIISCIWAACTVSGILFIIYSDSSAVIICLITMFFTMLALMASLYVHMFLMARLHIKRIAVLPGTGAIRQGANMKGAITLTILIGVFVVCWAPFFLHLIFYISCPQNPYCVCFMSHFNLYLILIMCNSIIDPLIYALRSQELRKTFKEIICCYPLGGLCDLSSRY

Row | SMILES | A1: inhibition of radioligand binding (Human δ-opioid (DOP)) | A6: inhibition of radioligand binding [1] | A10: inhibition of radioligand binding (Human opioid (ORL1)) | A11: inhibition of radioligand binding (Mouse urotensin (mUR2)) | A2: inhibition of radioligand binding (Human κ-Opioid (KOP)) | A8: inhibition of radioligand binding (Human neurokinin (NK1)) | A7: inhibition of radioligand binding (Human μ-opioid (MOP)) | A3: inhibition of radioligand binding (Human Melanocortin (MC3)) | A4: inhibition of radioligand binding (Human Melanocortin (MC4)) | A5: inhibition of radioligand binding (Human melanocortin (MC5)) | A9: inhibition of radioligand binding [2] | also measured
1 | COCC1OC(OCc2ccc3ccccc3c2)C(NC(=O)CN)C(OCc2ccc(Cl)cc2)C1O (stereo not drawn) [compound 235] | + (“+” indicates greater than 50% inhibition at 10 μM) | − (“−” indicates less than 50% inhibition at 10 μM) | − (“−” indicates less than 50% inhibition at 10 μM) | − (“−” indicates less than 50% inhibition at 10 μM) | − (“−” indicates less than 50% inhibition at 10 μM) | + (“+” indicates greater than 50% inhibition at 10 μM) | − (“−” indicates less than 50% inhibition at 10 μM) | − (“−” indicates less than 50% inhibition at 10 μM) | − (“−” indicates less than 50% inhibition at 10 μM) | − (“−” indicates less than 50% inhibition at 10 μM) | − (“−” indicates less than 50% inhibition at 10 μM) | 
2 | CSC1OC(COCc2ccc(Cl)cc2)C(O)C(OCc2ccc(Cl)cc2)C1NC(=O)CCN (stereo not drawn) [compound 271] | − (“−” indicates less than 50% inhibition at 10 μM) | − (“−” indicates less than 50% inhibition at 10 μM) | − (“−” indicates less than 50% inhibition at 10 μM) | − (“−” indicates less than 50% inhibition at 10 μM) | − (“−” indicates less than 50% inhibition at 10 μM) | + (“+” indicates greater than 50% inhibition at 10 μM) | − (“−” indicates less than 50% inhibition at 10 μM) | − (“−” indicates less than 50% inhibition at 10 μM) | − (“−” indicates less than 50% inhibition at 10 μM) | − (“−” indicates less than 50% inhibition at 10 μM) | − (“−” indicates less than 50% inhibition at 10 μM) | 
3 | CO[C@H]1[C@H](O)[C@@H](COCc2ccccc2)OC(OCCc2ccccc2)[C@@H]1NC(=O)CCNC(=N)N (stereo partly drawn) [compound 117] |  |  |  |  |  |  |  |  |  |  |  | A1 radioligand binding, percentage inhibition (Human δ-opioid (DOP)): − (“−” indicates less than 50% inhibition at 10 μM); A6 radioligand binding, percentage inhibition ([1]; [125I]-S36057): − (“−” indicates less than 50% inhibition at 10 μM); A10 radioligand binding, percentage inhibition (Human opioid (ORL1)): − (“−” indicates less than 50% inhibition at 10 μM); A11 radioligand binding, percentage inhibition (Mouse urotensin (mUR2)): − (“−” indicates less than 50% inhibition at 10 μM); A2 radioligand binding, percentage inhibition (Human κ-Opioid (KOP)): + (“+” indicates greater than 50% inhibition at 10 μM); A8 radioligand binding, percentage inhibition (Human neurokinin (NK1)): + (“+” indicates greater than 50% inhibition at 10 μM); A7 radioligand binding, percentage inhibition (Human μ-opioid (MOP)): − (“−” indicates less than 50% inhibition at 10 μM); A3 radioligand binding, percentage inhibition (Human Melanocortin (MC3)): − (“−” indicates less than 50% inhibition at 10 μM); A4 radioligand binding, percentage inhibition (Human Melanocortin (MC4)): − (“−” indicates less than 50% inhibition at 10 μM); A5 radioligand binding, percentage inhibition (Human melanocortin (MC5)): − (“−” indicates less than 50% inhibition at 10 μM); A9 radioligand binding, percentage inhibition [2]: − (“−” indicates less than 50% inhibition at 10 μM)
